Reference: patent US20090055945A1, “Method for Producing Nuclear-Transplanted Egg” (priority 2005, published 2009)

Tested on: bovine reconstructed embryos
Assay: Early embryonic development of bovine reconstructed embryos
Assay type: cell-based
Conditions: for Number of cleaved embryos / Cleavage rate (cleaved embryos to cultured embryos): 48 hours postactivation; for Number of embryos at the blastocyst stage: 168 hours postactivation
Procedure: Bovine ovaries collected from sacrificed cows at a local slaughterhouse were stored in physiological saline at 25° C. and transported to the laboratory within 6 to 8 hours after slaughter. Bovine oocytes were harvested by aspiration of follicular fluids from follicles with diameters of 2 to 5 mm on the surfaces of bovine ovaries using 21G injection needles (Terumo, Tokyo, Japan) and 10-ml syringes (Terumo). Only oocyte-cumulus cell complexes to which 2 to 4 layers of cumulus cells were attached were selected and collected from the harvested follicular fluids. The collected oocyte-cumulus cell complexes were introduced into drops of 50 μl maturation medium under mineral oil (Sigma, USA) and cultured for 21 hours at 39° C. under 5% CO2 and 95% air at saturation humidity. The maturation medium was prepared by adding 0.02 AU/ml of follicle-stimulating hormone (FSH, Antrin, Kawasaki Seiyaku, Kanagawa, Japan) and 1 μg/ml estradiol 17-β (Sigma) to 25 mM HEPES buffered TCM-199 (Earle's salts, Gibco, m-TCM199E) supplemented with 5% (v/v) new born calf serum (NBCS, Gibco, N.Y., USA) and 25 μg/ml of gentamicin solution (Sigma).
The oocyte-cumulus cell complexes matured for 21 hours were allowed to stand for 5 minutes in a solution containing 5% NBCS and 25 μg/ml gentamicin solution (Sigma) in 25 mM HEPES-buffered TCM-199 (Hank's salts, Gibco, m-TCM199H) containing 0.25% (w/v) hyaluronidase (Sigma). Then, the cumulus cells attached around the oocytes were fully removed by pipetting.
The oocytes from which the cumulus cells had been removed were transferred to m-TCM119H and only oocytes with the first polar bodies had been emitted were selected under an inverted microscope. Zonae pellucidae above each first polar bodies were incised using a fine glass needle for removing nuclei from the oocytes, and the oocytes were transferred to m-TCM119H supplemented with 5 μg/ml cytochalacin B (Sigma) and allowed to stand for 15 minutes. Each oocyte was held from the upside using the glass needle used for incising zona pellucida, and enucleation was carried out by removing the first polar body and the oocyte cytoplasm neighboring the first polar body corresponding to about 10 to 20% of the oocyte cytoplasm volume from the zona pellucida incision site. The removed oocyte cytoplasm was transferred to m-TCM199E containing 20 μg/ml of Hoechst 33342 (Sigma) and stained at 39° C. under 5% CO2 and 95% air at saturated humidity for 30 minutes, and the enucleation was confirmed by judging the presence of nucleus in the enucleated oocyte cytoplasm under UV irradiation.
Fibroblasts derived from an auricle of Japanese black cattle calves were used as donor cells for nuclear transfer. The donor cells were cultured to 80% confluency in Dulbecco's modified Eagle medium (DMEM, Nissui, Tokyo, Japan) supplemented with 10% (v/v) fetal bovine serum (FBS, Funakoshi, Tokyo, Japan). The culture medium was then exchanged for DMEM supplemented with 0.4% FBS, and the cells were cultured under serum-starvation conditions for 7 days. The cells cultured under serum-starvation conditions were isolated from the culture dishes using a 0.25% (w/v) solution of trypsin (Sigma) containing 0.04% (w/v) disodium dihydrogen ethylenediaminetetraacetic acid (EDTA, Nacalai Tesque, Kyoto, Japan). The cells were harvested by centrifugation in a centrifuge tube, and suspended in a phosphate buffered saline (PBS, Gibco) (−) solution containing 10% (w/v) polyvinylpyrrolidone (PVP, Nacalai Tesque). The isolated cells were aspirated into a micro-glass pipette for cell introduction, and introduced from the zona pellucida incision sites into the perivitelline spaces of the recipient enucleated oocytes. […]

[1] = TSA in the culture medium, 5-500 nM

## CC(/C=C/C(=O)NO)=C\[C@@H](C)C(=O)c1ccc(N(C)C)cc1 [TSA, trichostatin A]
TSA 5 nM for 48 hours
  Cell number ± SEM of blastocysts: 89 ± 6
  Cleavage rate (cleaved embryos to cultured embryos): 80%
  Number of embryos at the blastocyst stage: 28
TSA 5 nM for 48 hours, 106 cultured embryos
  Number of cleaved embryos: 85
TSA 50 nM for 48 hours
  Cell number ± SEM of blastocysts: 83 ± 6
  Cleavage rate (cleaved embryos to cultured embryos): 75%
  Number of embryos at the blastocyst stage: 29
TSA 50 nM for 48 hours, 97 cultured embryos
  Number of cleaved embryos: 73
TSA 500 nM for 48 hours
  Cell number ± SEM of blastocysts: 92 ± 8
  Cleavage rate (cleaved embryos to cultured embryos): 75%
  Number of embryos at the blastocyst stage: 5
TSA 500 nM for 48 hours, 97 cultured embryos
  Number of cleaved embryos: 73
TSA at a certain concentration for a certain period of time
  increase in blastocyst development rate: about 2 fold
[1]
  influence on cell number of blastocysts: did not influence
  influence on cleavage rate: did not influence
